This note sets out measurements from patent publication US8916602B2, “Fusarisetin compounds, and use thereof” (Korea Research Institute of Bioscience and Biotechnology, priority 2010, dated 2014).

Holding throughout (type): cell-based
The test system of experiment [1] is human liver cancer cell line (Hep3B). The experiment is described as follows: Inhibition of cancer cell proliferation (WST-8 cell survival), Hep3B. The following applies: 48 hours culture with compound, WST-8, OD450. The method, then:
(§1) Following experiment was performed to investigate the inhibitory activity of the compounds 1 and 2 of the present invention on the proliferation of cancer cells.
(§2) Particularly, human breast cancer cell line (MDA-MB-231, 5.0×10^3 cells per well), mouse fibroblast cell line (3Y1, 5.0×10^3 cells per well), and human liver cancer cell line (Hep3B, 5.0×10^3 cells per well) were cultured respectively in DMEM (Dulbecco's modification of Eagles medium, supplemented with 10% FBS). And human chronic myeloid leukemia cell line (K562, 3.0×10^4 cells per well) and human promyelocytic leukemia cell line (HL-60, 1.0×10^5 cells per well) were cultured respectively in RPMI 1640 (Roswell Park Memorial Institute 1640 medium, supplemented with 10% FBS). Each cell line cultured above was treated with different concentrations of the compound 1 and compound 2 (100 μg/ml, 30 μg/ml, 10 μg/ml, 3 μg/ml, and 1 μg/ml), followed by culture in a 5% CO2 incubator for 48 hours at 37° C. WST-8 reagent (2-(2-methoxy-4-nitrophenyl)-3-(4-nitrophenyl)-5-(2,4-disulfophenyl)-2H-tetrazolium, monosodium salt) producing high sensitive water soluble formazan was added thereto, followed by further culture for 24 hours. OD450 was measured to calculate cell survival rate.

In experiment [2] the test system is human breast cancer cell line (MDA-MB-231). The experiment is described as follows: Inhibition of cancer cell proliferation (WST-8 cell survival), MDA-MB-231. To be noted: MDA-MB-231 cell line, 48 hours culture with compound, WST-8, OD450. Here is the method: as §1, §2
For experiment [3], the system named is human breast cancer cells (MDA-MB-231 cells). The experiment can be described thus: Inhibition of cancer cell metastasis, trans-well chamber (Matrigel Invasion Chamber). To be noted: migration induced by 10% FBS, 24 hours, tested at 30, 10 and 3 μg/ml. The method, then:
Trans-well chamber (BioCoat™ Matrigel™ Invasion Chamber, pore size 8 μm, BD Biosciences, Bedford, Mass.) was used for the investigation of inhibitory activity of the compounds of the present invention on cancer cell metastasis. Particularly, human breast cancer cells (MDA-MB-231 cells) were distributed on the upper part of the chamber at the density of 1.0×10^5 cells per well. DMEM (Dulbecco's modification of Eagles medium, serum-free) was used for the culture. 30 minutes later, the compounds 1 and 2 were added to the upper part of the chamber at different concentrations of 30 μg/ml, 10 μg/ml, and 3 μg/ml, respectively. 30 minutes later, 10% FBS was added to the bottom of the chamber, followed by culture in a 5% CO2 incubator at 37° C. for 24 hours. 24 hours later, the cells migrated through porous membrane which had been induced by 10% FBS in the bottom of the chamber were fixed with 100% MeOH, followed by staining with Wright stain. Upon completion of the staining, the migrated cells were counted under microscope.

In experiment [4] the test system is mouse fibroblast cell line (3Y1). The experiment is described as follows: Inhibition of cell proliferation (WST-8 cell survival), 3Y1. To be noted: 3Y1 cell line, 48 hours culture with compound, WST-8, OD450. The method, then: as §1, §2
(Tetrazolium assays rely on reduction of a dye to a coloured formazan, in cell work by metabolically active cells.)

Experiment [5] concerns human chronic myeloid leukemia cell line (K562). The experiment is described as follows: Inhibition of cancer cell proliferation (WST-8 cell survival), K562. To be noted: 48 hours culture with compound, WST-8, OD450. The method, then: as §1, §2
Experiment [6] deals with human promyelocytic leukemia cell line (HL-60). The experiment is described as follows: Inhibition of cancer cell proliferation (WST-8 cell survival), HL-60. The following applies: HL-60 cell line, 48 hours culture with compound, WST-8, OD450. The method, then:
as §1, §2

≈ marks a conversion by molar mass, not a printed value.

On to `C[C@H]1CC[C@H]2[C@@H](C=C[C@@H]3[C@H]4[C@@H](C)O[C@]5(O)[C@@H](CO)N(C)C(=O)[C@]45C(=O)[C@@]32C)C1` [compound 1, fusarisetin A], for which the IC50 (usually the concentration at which inhibition is half-maximal) in experiment [1] was 34.7 µg/mL (≈ 89.1 µM); in experiment [2], 69.5 µg/mL (≈ 178 µM); in experiment [4] it was 67.5 µg/mL (≈ 173 µM); in experiment [5], 61.3 µg/mL (≈ 157 µM); in experiment [6], 57.7 µg/mL (≈ 148 µM). Moreover, in experiment [3], the “ED100 indicating the concentration capable of inhibiting metastasis of human breast cancer cell line by 100%” value was found to be 10 µg/mL.
Consider `C[C@H]1CC[C@H]2[C@@H](C=C[C@@H]3[C@H]4[C@H](C)O[C@]5(O)[C@@H](CO)N(C)C(=O)[C@]45C(=O)[C@@]32C)C1` [compound 2, fusarisetin B], for which the IC50 in experiment [1] came to 27.2 µg/mL (≈ 69.8 µM); in experiment [2] it was 76.5 µg/mL (≈ 196 µM); in experiment [4], 62.2 µg/mL (≈ 160 µM); in experiment [5], 49.3 µg/mL (≈ 127 µM); in experiment [6], 29.4 µg/mL (≈ 75.5 µM). Besides, the “ED100 indicating the concentration capable of inhibiting metastasis of human breast cancer cell line by 100%” value in experiment [3] is 10 µg/mL.
